Measured values: PubChem BioAssay AID1259407 (Chemical Carcinogenesis Research Information System (CCRIS), 2018)
Calls of active or inactive are those of the source. How the calls were made is not given here.

System: CCRIS mutagenicity, Ames/micronucleus/aberration tests
Assay: CCRIS mutagenicity studies

Measured: mutagenic call

C#C[C@]1(O)CC[C@H]2[C@@H]3CCc4cc(O)ccc4[C@H]3CC[C@@]21C
active: End Point: IN VITRO CHROMOSOMAL ABERRATIONS, Test System: CHINESE HAMSTER CELL DON (22;XY), Metabolic Activation: NONE active; positive (ploidy changes) | End Point: IN VITRO CHROMOSOMAL ABERRATIONS, Test System: CHO CELLS, Metabolic Activation: NONE active; positive | End Point: IN VITRO CHROMOSOMAL ABERRATIONS, Test System: HUMAN (FEMALE) PERIPHERAL BLOOD LYMPHOCYTES, Metabolic Activation: RAT, LIVER, S-9, WITH NADP ADDITION active; positive (structural changes)
inactive: End Point: IN VITRO CHROMOSOMAL ABERRATIONS, Test System: HUMAN (FEMALE) PERIPHERAL BLOOD LYMPHOCYTES, Metabolic Activation: NONE inactive; negative | End Point: IN VITRO CHROMOSOMAL ABERRATIONS, Test System: HUMAN (FEMALE) PERIPHERAL BLOOD LYMPHOCYTES, Metabolic Activation: RAT, LIVER, S-9, NO NADP inactive; negative | End Point: IN VITRO CHROMOSOMAL ABERRATIONS, Test System: HUMAN PERIPHERAL LYMPHOCYTES, Metabolic Activation: NONE inactive; negative | End Point: IN VITRO CHROMOSOMAL ABERRATIONS, Test System: HUMAN PERIPHERAL LYMPHOCYTES, Metabolic Activation: RAT, LIVER, S-9, AROCLOR 1254 inactive; negative | End Point: IN VIVO MICRONUCLEUS, Test System: BONE MARROW POLYCHROMATIC ERYTHROCYTES, Species: MOUSE, Strain/Sex: NMRI/FEMALE, Route: INTRAGASTRIC inactive; negative | End Point: IN VIVO MICRONUCLEUS, Test System: BONE MARROW POLYCHROMATIC ERYTHROCYTES, Species: MOUSE, Strain/Sex: SWISS ALBINO, Route: ORAL (GAVAGE) inactive; negative | Test System: AMES SALMONELLA TYPHIMURIUM, Strain/Indicator: TA97, Metabolic Activation: HAMSTER, LIVER, S-9, AROCLOR 1254 (10 OR 30%), Method: PREINCUBATION inactive; negative | Test System: AMES SALMONELLA TYPHIMURIUM, Strain/Indicator: TA97, Metabolic Activation: NONE, Method: PREINCUBATION inactive; negative | Test System: AMES SALMONELLA TYPHIMURIUM, Strain/Indicator: TA97, Metabolic Activation: RAT, LIVER, S-9, AROCLOR 1254 (10%), Method: PREINCUBATION inactive; negative | Test System: AMES SALMONELLA TYPHIMURIUM, Strain/Indicator: TA97, Metabolic Activation: RAT, LIVER, S-9, AROCLOR 1254 (30%), Method: PREINCUBATION inactive; negative | Test System: AMES SALMONELLA TYPHIMURIUM, Strain/Indicator: TA98, Metabolic Activation: HAMSTER, LIVER, S-9, AROCLOR 1254 (10 OR 30%), Method: PREINCUBATION inactive; negative | Test System: AMES SALMONELLA TYPHIMURIUM, Strain/Indicator: TA98, Metabolic Activation: MOUSE, LIVER, S-9, Method: STANDARD PLATE inactive; negative | Test System: AMES SALMONELLA TYPHIMURIUM, Strain/Indicator: TA98, Metabolic Activation: NONE inactive; negative | Test System: AMES SALMONELLA TYPHIMURIUM, Strain/Indicator: TA98, Metabolic Activation: NONE, Method: PREINCUBATION inactive; negative | Test System: AMES SALMONELLA TYPHIMURIUM, Strain/Indicator: TA98, Metabolic Activation: NONE, Method: STANDARD PLATE inactive; negative | Test System: AMES SALMONELLA TYPHIMURIUM, Strain/Indicator: TA98, Metabolic Activation: RAT, LIVER, S-9, AROCLOR 1254 (10%), Method: PREINCUBATION inactive; negative | Test System: AMES SALMONELLA TYPHIMURIUM, Strain/Indicator: TA98, Metabolic Activation: RAT, LIVER, S-9, AROCLOR 1254 (30%), Method: PREINCUBATION inactive; negative | Test System: AMES SALMONELLA TYPHIMURIUM, Strain/Indicator: TA98, Metabolic Activation: RAT, LIVER, S-9, AROCLOR 1254, Method: STANDARD PLATE inactive; negative | Test System: AMES SALMONELLA TYPHIMURIUM, Strain/Indicator: TA98, Metabolic Activation: S-9 inactive; negative | Test System: AMES SALMONELLA TYPHIMURIUM, Strain/Indicator: TA100, Metabolic Activation: HAMSTER, LIVER, S-9, AROCLOR 1254 (10 OR 30%), Method: PREINCUBATION inactive; negative | Test System: AMES SALMONELLA TYPHIMURIUM, Strain/Indicator: TA100, Metabolic Activation: MOUSE, LIVER, S-9, Method: STANDARD PLATE inactive; negative | Test System: AMES SALMONELLA TYPHIMURIUM, Strain/Indicator: TA100, Metabolic Activation: NONE inactive; negative | Test System: AMES SALMONELLA TYPHIMURIUM, Strain/Indicator: TA100, Metabolic Activation: NONE, Method: PREINCUBATION inactive; negative | Test System: AMES SALMONELLA TYPHIMURIUM, Strain/Indicator: TA100, Metabolic Activation: NONE, Method: STANDARD PLATE inactive; negative | Test System: AMES SALMONELLA TYPHIMURIUM, Strain/Indicator: TA100, Metabolic Activation: RAT, LIVER, S-9, AROCLOR 1254 (10%), Method: PREINCUBATION inactive; negative | Test System: AMES SALMONELLA TYPHIMURIUM, Strain/Indicator: TA100, Metabolic Activation: RAT, LIVER, S-9, AROCLOR 1254 (30%), Method: PREINCUBATION inactive; negative | Test System: AMES SALMONELLA TYPHIMURIUM, Strain/Indicator: TA100, Metabolic Activation: RAT, LIVER, S-9, AROCLOR 1254, Method: STANDARD PLATE inactive; negative | Test System: AMES SALMONELLA TYPHIMURIUM, Strain/Indicator: TA100, Metabolic Activation: S-9 inactive; negative | Test System: AMES SALMONELLA TYPHIMURIUM, Strain/Indicator: TA1535, Metabolic Activation: HAMSTER, LIVER, S-9, AROCLOR 1254 (10 OR 30%), Method: PREINCUBATION inactive; negative | Test System: AMES SALMONELLA TYPHIMURIUM, Strain/Indicator: TA1535, Metabolic Activation: MOUSE, LIVER, S-9, Method: STANDARD PLATE inactive; negative | Test System: AMES SALMONELLA TYPHIMURIUM, Strain/Indicator: TA1535, Metabolic Activation: NONE inactive; negative | Test System: AMES SALMONELLA TYPHIMURIUM, Strain/Indicator: TA1535, Metabolic Activation: NONE, Method: PREINCUBATION inactive; negative | Test System: AMES SALMONELLA TYPHIMURIUM, Strain/Indicator: TA1535, Metabolic Activation: NONE, Method: STANDARD PLATE inactive; negative | Test System: AMES SALMONELLA TYPHIMURIUM, Strain/Indicator: TA1535, Metabolic Activation: RAT, LIVER, S-9, AROCLOR 1254 (10%), Method: PREINCUBATION inactive; negative | Test System: AMES SALMONELLA TYPHIMURIUM, Strain/Indicator: TA1535, Metabolic Activation: RAT, LIVER, S-9, AROCLOR 1254 (30%), Method: PREINCUBATION inactive; negative | Test System: AMES SALMONELLA TYPHIMURIUM, Strain/Indicator: TA1535, Metabolic Activation: RAT, LIVER, S-9, AROCLOR 1254, Method: STANDARD PLATE inactive; negative | Test System: AMES SALMONELLA TYPHIMURIUM, Strain/Indicator: TA1535, Metabolic Activation: S-9 inactive; negative | Test System: AMES SALMONELLA TYPHIMURIUM, Strain/Indicator: TA1537, Metabolic Activation: MOUSE, LIVER, S-9, Method: STANDARD PLATE inactive; negative | Test System: AMES SALMONELLA TYPHIMURIUM, Strain/Indicator: TA1537, Metabolic Activation: NONE inactive; negative | Test System: AMES SALMONELLA TYPHIMURIUM, Strain/Indicator: TA1537, Metabolic Activation: NONE, Method: STANDARD PLATE inactive; negative | Test System: AMES SALMONELLA TYPHIMURIUM, Strain/Indicator: TA1537, Metabolic Activation: RAT, LIVER, S-9, AROCLOR 1254, Method: STANDARD PLATE inactive; negative | Test System: AMES SALMONELLA TYPHIMURIUM, Strain/Indicator: TA1537, Metabolic Activation: S-9 inactive; negative | Test System: AMES SALMONELLA TYPHIMURIUM, Strain/Indicator: TA1538, Metabolic Activation: MOUSE, LIVER, S-9, Method: STANDARD PLATE inactive; negative | Test System: AMES SALMONELLA TYPHIMURIUM, Strain/Indicator: TA1538, Metabolic Activation: NONE, Method: STANDARD PLATE inactive; negative | Test System: AMES SALMONELLA TYPHIMURIUM, Strain/Indicator: TA1538, Metabolic Activation: RAT, LIVER, S-9, AROCLOR 1254, Method: STANDARD PLATE inactive; negative | Test System: E. COLI, Strain/Indicator: WP2 UVRA, Metabolic Activation: HAMSTER, LIVER, S-9, AROCLOR 1254, Method: STANDARD PLATE inactive; negative | Test System: E. COLI, Strain/Indicator: WP2 UVRA, Metabolic Activation: HAMSTER, LIVER, S-9, Method: STANDARD PLATE inactive; negative | Test System: E. COLI, Strain/Indicator: WP2 UVRA, Metabolic Activation: MOUSE, LIVER, S-9, AROCLOR 1254, Method: STANDARD PLATE inactive; negative | Test System: E. COLI, Strain/Indicator: WP2 UVRA, Metabolic Activation: MOUSE, LIVER, S-9, Method: STANDARD PLATE inactive; negative | Test System: E. COLI, Strain/Indicator: WP2 UVRA, Metabolic Activation: NONE inactive; negative | Test System: E. COLI, Strain/Indicator: WP2 UVRA, Metabolic Activation: NONE, Method: STANDARD PLATE inactive; negative | Test System: E. COLI, Strain/Indicator: WP2 UVRA, Metabolic Activation: RAT, LIVER, S-9, AROCLOR 1254, Method: STANDARD PLATE inactive; negative | Test System: E. COLI, Strain/Indicator: WP2 UVRA, Metabolic Activation: RAT, LIVER, S-9, Method: STANDARD PLATE inactive; negative | Test System: E. COLI, Strain/Indicator: WP2 UVRA, Metabolic Activation: S-9 inactive; negative
